Laboratory results as given in patent US8324253B2, “Crystalline modification of 4-(N-methyl-Z-chloro-5pyridy methylamino)-2, 5-dihydrofuran-2-on” (Bayer Cropscience AG, priority 2006, dated 2012).

Assays:
[1] = test system: Nilaparvata lugens; experiment: Nilaparvata lugens test (foliar application), outdoor trial rice, Philippines; type: in vivo
Experimental: Action of the crystalline modification I of the compound of the formula (I) against plant-damaging insects/outdoor trial rice, Philippines
Nilaparvata lugens Test (Foliar Application)
To produce a suitable preparation of active compound, the oil-based suspension concentrate prepared according to Example 2.3 (OD 100 formulation) was diluted with water to the desired concentration. After the desired period of time, the kill in % was determined 100% means that all leafhoppers have been killed; 0% means that none of the leafhoppers have been killed.

[2] = Solid-state properties of the crystalline modifications (stability, moisture uptake, grindability); type: physicochemical

thermodynamic stability of the crystalline modification [2]	grindability ([2]; compared to other crystalline modifications)	SMILES	Kill rate in % after 14 days ([1]; Active compound concentration 200 g/ha, foliar application of OD 100 formulation of Example 2.3 diluted with water, rice, outdoor trial, 100% = all leafhoppers killed)	activity against Nilaparvata lugens (in words) ([1]; foliar application, outdoor trial rice)	tendency to absorb atmospheric moisture ([2]; compared to the crystalline modification II)	conversion into another crystalline modification on storage ([2]; prolonged storage)
thermodynamically stable	easier to comminute/grind	CN(Cc1ccc(Cl)nc1)C1=CC(=O)OC1 [crystalline modification I, 4-{[(6-chloropyrid-3-yl)methyl](methyl)amino}furan-2(5H)-one]	100%	good activity	reduced tendency to absorb atmospheric moisture	does not convert into another crystalline modification
metastable	–	CN(Cc1ccc(Cl)nc1)C1=CC(=O)OC1 [crystalline modification II, 4-{[(6-chloropyrid-3-yl)methyl](methyl)amino}furan-2(5H)-one, reference compound]	–	–	–	–
